Reference: PubChem BioAssay (NCI)
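All cell lines were grown in 96-well plates and treated with compound for 48 hours. Abbreviation: GI50, concentration required for 50% inhibition of growth. TGI is the concentration that stops growth completely.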 Calls of active or inactive are those of the source. Cut-off read from the data, not from the text of the source: active = GI50 below about 0.43 µM; inactive = the rest.

How the values were obtained:
Experiment in all cases: NCI-60 cell line screen, 48 h
MALME-3M melanoma = system: MALME-3M melanoma
SN12C renal = system: SN12C renal
UO-31 renal = system: UO-31 renal
K-562 leukemia = system: K-562 leukemia
MOLT-4 leukemia = system: MOLT-4 leukemia
A549 NSCLC = system: A549 NSCLC
A498 renal = system: A498 renal

| Compound | TGI (MALME-3M melanoma) [µM] | TGI (SN12C renal) [µM] | TGI (UO-31 renal) [µM] | TGI (K-562 leukemia) [µM] | TGI (MOLT-4 leukemia) [µM] | TGI (A549 NSCLC) [µM] | TGI (A498 renal) [µM] | GI50 (MALME-3M melanoma) [µM] | GI50 (SN12C renal) [µM] | GI50 (UO-31 renal) [µM] | GI50 (K-562 leukemia) [µM] | GI50 (MOLT-4 leukemia) [µM] | GI50 (A549 NSCLC) [µM] | GI50 (A498 renal) [µM] | outcome (MALME-3M melanoma) | outcome (SN12C renal) | outcome (UO-31 renal) | outcome (MOLT-4 leukemia) | outcome (A498 renal) |
| --- | --- | --- | --- | --- | --- | --- | --- | --- | --- | --- | --- | --- | --- | --- | --- | --- | --- | --- | --- |
| Cc1ccc(C#CS(=O)(=O)C(F)(F)F)cc1 | > 100 | > 100 | > 100 | > 100 | > 100 | > 100 | > 100 |  |  |  |  |  |  |  |  |  |  |  |  |
| NCCS(=O)(=O)O | > 100 | > 100 | > 100 | > 100 | > 100 | > 100 |  |  |  |  |  |  |  |  |  |  |  |  |  |
| CC(=O)c1[nH]c(Nc2ccc(C)cc2)c(C(=S)Nc2ccccc2)c1N | 31.9 | 35 | 28.4 | 72.2 | > 100 | 30.7 | 28.8 |  |  |  |  |  |  |  |  |  |  |  |  |
| O=Cc1c(Br)[nH]c2ccccc12 | > 100 | > 100 | > 100 | > 100 | > 72.6 | > 100 | > 100 |  |  |  |  |  |  |  |  |  |  |  |  |
| O=C(c1ccccc1O)c1cc(-c2ncc3c(=O)c4ccccc4oc3n2)c(-c2ccccc2O)[nH]c1=O | 74.4 | 63.7 | > 79.7 | 75.1 | 61.9 | 73.1 | 57.1 |  |  |  |  |  |  |  |  |  |  |  |  |
| N#Cc1ccc(C2Oc3ccc(Cl)cc3C=C2[N+](=O)[O-])cc1 (stereo not drawn) | 4.79 |  | 2.99 | 2.04 | 4.24 | 3.3 | 6.31 |  |  |  |  |  |  |  |  |  |  |  |  |
| O=C(Nc1ccc(Sc2ccc(N=Nc3c(O)c(S(=O)(=O)O)cc4cc(S(=O)(=O)O)ccc34)cc2)cc1)c1ccc(N=Nc2c(O)c(S(=O)(=O)O)cc3cc(S(=O)(=O)O)ccc23)cc1 | 53.5 | > 100 | > 100 | > 100 | 36.8 | > 100 | > 100 |  |  |  |  |  |  |  |  |  |  |  |  |
| C[N+]1([O-])[C@H]2CC(OC(=O)[C@H](CO)c3ccccc3)C[C@H]1[C@H]1O[C@H]12 (stereo partly drawn) | > 100 | > 100 | > 100 | > 100 | > 100 | > 100 | > 100 |  |  |  |  |  |  |  |  |  |  |  |  |
| COc1ccc([C@H]2c3cc4c(cc3OC(O)(CO)[C@H]2C(=O)O)OCO4)c(OC)c1 (stereo partly drawn) (tested in a mixture with another compound) | > 100 | > 100 | > 100 | > 100 | > 100 | > 100 | > 100 |  |  |  |  |  |  |  |  |  |  |  |  |
| CCOC(=O)C1=C(c2ccccc2)C12N(Cc1ccccc1)C(=O)C2(c1ccccc1)c1ccccc1 (stereo not drawn) | > 100 | > 100 | > 100 | > 100 | > 100 |  | 90.9 |  |  |  |  |  |  |  |  |  |  |  |  |
| O=NN1C(c2ccccc2)CCCC1c1ccccc1 (stereo not drawn) | > 100 | > 100 | > 100 | > 100 | > 100 | > 100 | > 85.5 |  |  |  |  |  |  |  |  |  |  |  |  |
| COc1cc(/C(=C2/O[C@@H]([C@H]3COC(C)(C)O3)[C@H]3OC(C)(C)O[C@@H]23)c2ccc3c(c2)OCO3)cc(OC)c1OC | > 25 | > 25 | > 25 | > 25 | > 25 | > 25 | > 25 | > 25 | 18.8 | > 25 | > 25 | > 25 | > 25 | > 25 |  |  |  |  |  |
| O=P(O)(O)CN1CCNCCN(CP(=O)(O)O)CCN(CP(=O)(O)O)CCNCC1 | 44.1 |  |  |  |  |  |  |  |  |  |  |  |  |  | inactive | inactive | inactive | inactive | inactive |
| O=C1c2cc3c(cc2CC1Cc1ccc2c(c1)CCC2)CCC3 (stereo not drawn) | > 100 | > 100 | > 100 | > 100 | > 100 | > 100 | > 100 |  |  |  |  |  |  |  |  |  |  |  |  |
| O=C(c1ccccc1)c1c(C(F)(F)F)n([O-])c2cc(F)c(F)cc2[n+]1=O | 0.42 |  | 2.4 |  | 1.97 | 8.34 | 7.19 |  |  |  |  |  |  |  |  |  |  |  |  |
| O=C(CSCC(=O)N/N=C\c1ccccc1F)N/N=C\c1ccccc1F | > 100 | > 100 | > 100 |  | > 100 | > 100 | > 100 |  |  |  |  |  |  |  |  |  |  |  |  |
| CCCCOc1ccc2c(c1)CC[C@@H]1[C@@H]2CC[C@]2(C)C(=O)N(CCCC)C(=O)C[C@@H]12 | > 100 | > 100 | > 100 | > 100 | > 100 |  | > 100 |  |  |  |  |  |  |  |  |  |  |  |  |
| COc1cc(-c2nc3cc(Cl)c(Cl)cc3[nH]2)ccc1OCC(=O)N=Nc1c(O)[nH]c2ccc(Cl)cc12 |  |  | > 100 |  | 1.59 |  |  |  |  | > 100 | 0.284 | 0.321 |  |  |  |  |  |  |  |
